{"source": "paper PMC5341405", "about": "“Lapachol, a compound targeting pyrimidine metabolism, ameliorates experimental autoimmune arthritis” (Arthritis Research & Therapy, 2017)", "key": {"human CD4 T cells": {"tested_on": "human CD4 T cells", "test": "Proliferation assay of human CD4 T cells (dye dilution, flow cytometry)", "assay_type": "cell-based", "text": "(§1) Human CD4 T cells were purified from the whole blood of healthy volunteers. Briefly, peripheral blood mononuclear cells (PBMCs) were isolated by Percoll gradient (Sigma-Aldrich, St. Louis, MO, USA). CD4 T cells were isolated from PBMCs using Isolation Kit (Miltenyi Biotec, Bergisch Gladbach, Germany). For murine CD4 T cells, lymph nodes from naive C57BL/6 male mice were harvested, and CD4 T cells were purified using Isolation Kit (Miltenyi Biotec, Bergisch Gladbach, Germany) according to the manufacturer’s recommendations.\n(§2) A total of 1 × 10^5 CD4 T cells were labeled with 1 μM Dye Efluor® 670 (eBioscience, San Diego, CA, USA) for 15 min at 37 °C and cultured in RPMI-1640 10% FBS for 4 days in a 96-well U-bottom plate (Falcon, Franklin Lakes, New Jersey, USA) with the LAP salt diluted in RPMI-1640 (10, 30, and 100 μM), LEF diluted in RPMI-1640 (10, 30, and 100 μM; Arava®, Sanofi, France) and/or uridine (30, 100, and 300 μM; Sigma-Aldrich, St. Louis, MO, USA) in the presence of anti-CD3 (3 μg/ml) and anti-CD28 (1.5 μg/ml). The proliferation of CD4 T cells was determined by dye dilution in flow cytometry analysis. The results were expressed as the percentage of suppression using the following formula: [proliferation of CD4 T cells only – (proliferation of T CD4 cells with LEF or LAP)/proliferation of CD4 T cells only] × 100."}, "human keratinocytes": {"tested_on": "human keratinocytes", "design": "method as in PMID 10479319", "conditions": "in vitro; cited from earlier work"}, "murine CD4 T cells": {"tested_on": "murine CD4 T cells", "test": "Proliferation assay of murine CD4 T cells (dye dilution, flow cytometry)", "assay_type": "cell-based, C57BL/6 mice", "text": "as §1, §2"}, "[1]": {"conditions": "10, 30, and 100 μM, 4 days, anti-CD3/CD28"}}}
{"smiles": "CC(C)=CCC1=C(O)C(=O)c2ccccc2C1=O", "note": "[LAP, 2-hydroxy-3-(3methyl-2-butenyl)-1,4-naphthoquinone]", "values": [{"measurement": "effect on proliferation of human CD4 T cells", "setting": "human CD4 T cells; [1]", "result": "dose-dependent inhibition of human T-cell proliferation"}, {"measurement": "suppression of proliferation compared with LEF", "setting": "human CD4 T cells; human CD4 T cells, same equivalent concentrations", "result": "greater ability to suppress the proliferation"}, {"measurement": "antiproliferative effect in the presence of uridine", "setting": "human CD4 T cells; human CD4 T cells, uridine 30, 100, and 300 μM", "result": "uridine was able to reverse the antiproliferative effect of LAP in a dose-dependent manner"}, {"measurement": "proliferation of human keratinocytes", "setting": "human keratinocytes", "result": "can reduce proliferation of the human keratinocytes"}, {"measurement": "effect on proliferation of murine CD4 T cells", "setting": "murine CD4 T cells; [1]", "result": "inhibited the proliferation of murine CD4 T cells in a dose-dependent manner"}, {"measurement": "suppression of proliferation compared with LEF", "setting": "murine CD4 T cells; murine CD4 T cells, same equivalent concentrations", "result": "greater ability to suppress the proliferation"}]}
